Test results reported in patent US20100081679A1, “DIAMINOPYRIMIDINES AS FUNGICIDES” (Bayer CropScience AG, priority 2007, published 2010).
Marks after values point to notes of the source that are not given here.

assay: logP determination via retention times, calibrated with unbranched alkan-2-ones; type: physicochemical; settings: HPLC on reversed-phase C 18, EEC Directive 79/831 Annex V.A8; method *: 40° C., 0.1% aqueous formic acid and acetonitrile, linear gradient 10% to 95% acetonitrile

logP	SMILES
2.95*	FC(F)C(F)(F)Oc1cccc(Nc2ncc(Cl)c(NCC3CC3)n2)c1 [compound 527]
3.8*	CCCCC(=O)Oc1ccc(Nc2ncc(Cl)c(NCC3CC3)n2)cc1 [compound 551]
3.1*	FC(F)C(F)(F)Oc1cccc(Nc2ncc(Br)c(NCC3CC3)n2)c1 [compound 493]
2.67*	CC(=O)c1cc(Nc2ncc(Br)c(NCC3CC3)n2)ccc1Cl [compound 487]
1.61*	CCC(=O)Nc1cccc(Nc2ncc(Cl)c(NCC3CC3)n2)c1 [compound 508]
1.29*	CC(=O)Nc1cc(Nc2ncc(Cl)c(NCC3CC3)n2)ccc1O [compound 552]
0.89*	CC(=O)Nc1ccc(Nc2ncc(Cl)c(NCC3CC3)n2)cn1 [compound 507]
1.56*	COC(=O)Nc1ccc(Nc2ncc(Cl)c(NC3CC3)n2)c(F)c1 [compound 530]
1.51*	Cc1cc(Nc2ncc(Cl)c(NCC3CC3)n2)ccc1O [compound 558]

same assay, conditions: HPLC on reversed-phase C18, method *: 40° C., 0.1% aqueous formic acid and acetonitrile, linear gradient 10% to 95% acetonitrile

logP	SMILES
3.33*	FC(F)(F)c1ccc(Nc2ncc(Cl)c(NCC3CC3)n2)cc1 [compound 684]
1.69*	CC(=O)N(C)c1ccc(Nc2ncc(C#N)c(NC3CC3)n2)cc1 [compound 158]
2.6*	Clc1ccccc1Nc1ncc(Cl)c(NC2CC2)n1 [compound 940]
1.62*	O=C(Nc1cccc(Nc2ncc(Cl)c(NC3CC3)n2)c1)c1ccco1 [Example 99]
2.01*	Cc1ccc(Nc2ncc(Cl)c(NC3CC3)n2)cc1C [compound 939]
1.66*	N#CCc1cccc(Nc2ncc(Cl)c(NC3CC3)n2)c1 [compound 712]
3.03*	Brc1cnc(Nc2ccccc2)nc1NC1(COc2ccccc2)CC1 [compound 932]
1.35*	Cc1cc(Nc2ncc(Br)c(NC3CC3)n2)ccc1O [compound 116]
3.68*	Fc1cc(C(F)(F)F)ccc1Nc1ncc(Cl)c(NC2CC2)n1 [compound 934]
4.87*	Clc1ccc(Oc2ccccc2)c(Nc2ncc(Cl)c(NC3CC3)n2)c1 [compound 873]
3.03*	FC(F)(F)c1cccc(Nc2ncc(Cl)c(NC3CC3)n2)c1 [compound 950]
2.13*	CC(=O)c1ccc(Nc2ncc(Cl)c(NCC3CC3)n2)cc1 [compound 678]
2.56*	N#CCc1cccc(Nc2ncc(C(F)(F)F)c(NC3CC3)n2)c1 [compound 976]
2.54*	CC(C)c1ccc(Nc2ncc(Cl)c(NC3CC3)n2)cc1 [compound 729]
1.97*	CS(=O)(=O)c1ccc(Nc2ncc(Cl)c(NCC3CC3)n2)cc1 [compound 670]
1.53*	CCOC(=O)Nc1ccc(Nc2ncc(Br)c(NC3CC3)n2)cc1O [compound 728]

same assay, conditions: HPLC on reversed-phase C18, method *: 40° C.; mobile phase 0.1% aqueous formic acid and acetonitrile; linear gradient 10% to 95% acetonitrile

logP	SMILES
2.18*	CC(C)(C)NC(=O)c1ccc(Nc2ncc(Br)c(NC3CC3)n2)cc1 [compound 352]
2.82*	COC(c1cccc(Nc2ncc(Br)c(NC3CC3)n2)c1)C(F)(F)F (centres unmarked) [compound 333]
2.68*	CCC(=O)c1ccc(Nc2ncc(Br)c(NC3CC3)n2)cc1 [compound 356]
2.83*	CCCOc1cccc(Nc2ncc(Br)c(NC3CC3)n2)c1 [compound 336]
2.8*	CC(C)c1cccc(Nc2ncc(Br)c(NC3CC3)n2)c1 [compound 363]
3.13*	CCOC(=O)C1(Nc2nc(Nc3cccc(Cl)c3)ncc2Cl)CC1 [compound 316]
2.01*	CCOC(=O)C1(Nc2nc(Nc3cc(OC)c(OC)c(OC)c3)ncc2Cl)CC1 [compound 317]
1.54*	CC(=O)N(C)c1ccc(Nc2ncc(Br)c(NC3CC3)n2)cc1 [compound 349]
1.87*	CCOc1ccc(Nc2ncc(Br)c(NC3CC3)n2)cc1 [compound 308]
1.63*	COc1ccc(Nc2ncc(Br)c(NC3CC3)n2)cc1 [compound 344]
3.68*	FC(F)(F)Oc1cccc(Nc2ncc(Br)c(NC3CC3)n2)c1 [compound 301]
1.31*	CC(=O)Nc1ccc(Nc2ncc(Br)c(NC3CC3)n2)cc1 [compound 348]

same assay, conditions: HPLC on reversed-phase C18 column (EEC Directive 79/831 Annex V.A8); method *: 40° C.; 0.1% aqueous formic acid and acetonitrile; linear gradient 10% to 95% acetonitrile

logP	SMILES
2.33*	O=C1CCCN1c1cc(Nc2ncc(C(F)(F)F)c(NC3CC3)n2)ccc1F [compound 265]
1.67*	COCc1cccc(Nc2ncc(Cl)c(NC3CC3)n2)c1 [compound 268]
3.03*	FC(F)C(F)(F)Oc1cccc(Nc2ncc(Cl)c(NC3CC3)n2)c1 [compound 182]
2.48*	CN(C)S(=O)(=O)c1cccc(Nc2ncc(Br)c(NCC3CC3)n2)c1 [compound 192]

same assay, conditions: HPLC reversed-phase C 18, EEC Directive 79/831 Annex V.A8; method *: 40° C., 0.1% aqueous formic acid and acetonitrile, linear gradient 10% to 95% acetonitrile

logP	SMILES
1.79*	Cc1ccc(Nc2ncc(Cl)c(NC3CC3)n2)cc1CC#N [compound 819]
2.9*	CC(C)(C)c1cccc(Nc2ncc(Cl)c(NC3CC3)n2)c1 [compound 778]
3.16*	COC(C)c1cccc(Nc2ncc(C(F)(F)F)c(NC3CC3)n2)c1 (centres unmarked) [compound 826]
1*	CC(=O)Nc1ccc(Nc2ncc(Cl)c(NC3CC3)n2)cc1O [compound 822]
2.2*	CO/N=C(\C)Cc1cccc(Nc2ncc(Cl)c(NC3CC3)n2)c1 [compound 854]
1.68*	O=C1OCCN1c1cccc(Nc2ncc(Br)c(NCC3CC3)n2)c1 [compound 862]

same assay, conditions: method **: HPLC reversed-phase C 18, 43° C., 0.1% aqueous phosphoric acid and acetonitrile, linear gradient 10% to 95% acetonitrile

logP	SMILES
2.23**	N#Cc1cc(Nc2ncc(Cl)c(NC3CC3)n2)ccc1N1CCCC1 [compound 439]
1.59**	O=C1CCCN1c1ccc(Nc2ncc(Br)c(NCC3CC3)n2)cc1 [compound 457]
2.04**	CN(C)S(=O)(=O)c1cccc(Nc2ncc(Cl)c(NC3CC3)n2)c1 [Example 28]
1.75**	Cl.Clc1cnc(Nc2ccccc2)nc1NC1CC1 [Example 29]

same assay, conditions: method **: HPLC reversed-phase C 18, temperature 43° C.; mobile phase 0.1% aqueous phosphoric acid and acetonitrile; linear gradient 10% to 95% acetonitrile

SMILES	logP
CNC(=O)Oc1cccc(Nc2ncc(C(F)(F)F)c(NC3CC3)n2)c1 [compound 659]	2.13**
COC(=O)Nc1cccc(Nc2ncc(C(F)(F)F)c(NC3CC3)n2)c1 [compound 660]	2.06**

same assay, conditions: method **: HPLC, reversed-phase C 18, 43° C., mobile phase 0.1% aqueous phosphoric acid and acetonitrile, linear gradient from 10% to 95% acetonitrile

logP	SMILES
0.92**	Clc1cnc(Nc2cccc(CN3CCCC3)c2)nc1NC1CC1 [compound 1043]
3.7**	FS(F)(F)(F)(F)c1cccc(Nc2ncc(Cl)c(NC3CC3)n2)c1 [compound 1052]
1.86**	CN(C)C(=O)c1ccc(Nc2ncc(Cl)c(NC3CC3(C)C)n2)cc1 (centres unmarked) [compound 1030]
3.69**	N#Cc1cc(Nc2ncc(Cl)c(NC3CC3)n2)cc(C(F)(F)F)c1 [compound 1017]

same assay, conditions: method *: HPLC reversed-phase C18, 40° C., 0.1% aqueous formic acid and acetonitrile, linear gradient 10% to 95% acetonitrile

logP	SMILES
2.26*	CC(=O)c1ccc(Nc2ncc(Br)c(NCC3CC3)n2)cc1 [compound 456]
2.23*	COC(=O)c1ccc(Nc2ncc(Cl)c(NC3CC3)n2)cc1 [Example 37]
2.2*	N#CCS(=O)(=O)c1ccc(Nc2ncc(Cl)c(NC3CC3)n2)cc1 [compound 62]
1.47*	Clc1cnc(Nc2ccc3[nH]ccc3c2)nc1NC1CC1 [Example 71]
2.48*	CC(C)(C)C(=O)Cc1ccc(Nc2ncc(Br)c(NCC3CC3)n2)cc1 [compound 455]
2.3*	CC(C)(C)NC(=O)c1ccc(Nc2ncc(Br)c(NCC3CC3)n2)cc1 [compound 426]
2.77*	FC(F)Sc1ccc(Nc2ncc(Cl)c(NC3CC3)n2)cc1 [compound 94]
1.66*;	O=C1CCCN1c1ccc(Nc2ncc(Br)c(NCC3CC3)n2)cc1 [compound 457]
2.58*	CSc1cc(Nc2ncc(Br)c(NCC3CC3)n2)ccc1C [compound 459]
2.15*	O=S(=O)(Cc1cccc(Nc2ncc(Cl)c(NC3CC3)n2)c1)Nc1ccccc1 [compound 370]
3.36*	CC(C)COc1cccc(Nc2ncc(Br)c(NC3CC3)n2)c1 [compound 445]
6.16*	CCCCCCCCSc1cccc(Nc2ncc(Cl)c(NC3CC3)n2)c1.Cc1ccc(S(=O)(=O)O)cc1 [compound 442]

same assay, conditions: method *: HPLC reversed-phase C 18, temperature 40° C.; mobile phase 0.1% aqueous formic acid and acetonitrile; linear gradient 10% to 95% acetonitrile

logP	SMILES
1.73*	CSc1cccc(Nc2ncc(F)c(NC3CC3)n2)c1 [compound 586]
3.15*	Fc1cccc(Nc2ncc(Cl)c(NC3CC3)n2)c1 [compound 620]
2.36*	CN(C)S(=O)(=O)c1cccc(Nc2ncc(C#N)c(NC3CC3)n2)c1 [compound 617]
2.39*	COC(=O)Cc1cccc(Nc2ncc(C#N)c(NC3CC3)n2)c1 [compound 606]
1.83*	CN(C)C(=O)c1cccc(Nc2ncc(C#N)c(NC3CC3)n2)c1 [compound 614]
2.84*	CN(C)S(=O)(=O)c1ccc(Nc2ncc(C(F)(F)F)c(NC3CC3)n2)cc1 [compound 645]
2.16*;	COC(=O)Nc1cccc(Nc2ncc(C(F)(F)F)c(NC3CC3)n2)c1 [compound 660]
2.95*	N#Cc1cccc(Nc2ncc(C(F)(F)F)c(NC3CC3)n2)c1 [compound 638]

SMILES	logP
CNC(=O)Oc1cccc(Nc2ncc(C(F)(F)F)c(NC3CC3)n2)c1 [compound 659]	2.06*;

same assay, conditions: method *: HPLC, reversed-phase C 18, 40° C., mobile phase 0.1% aqueous formic acid and acetonitrile, linear gradient from 10% to 95% acetonitrile

logP	SMILES
1.66*	Clc1cnc(Nc2ccc3ncsc3c2)nc1NC1CC1 [compound 995]
1.77*	COCC1CCCN1C(=O)c1cccc(Nc2ncc(Cl)c(NC3CC3)n2)c1 (centres unmarked) [compound 1061]
1.86*;	CN(C)C(=O)c1ccc(Nc2ncc(Cl)c(NC3CC3(C)C)n2)cc1 (centres unmarked) [compound 1030]
2.84*	CCOC(=O)c1cc(Nc2ncc(Cl)c(NC3CC3)n2)ccc1Cl [compound 990]
4.92*	CCC(CC)c1ccc(Nc2ncc(C(F)(F)F)c(NC3CC3)n2)cc1 [compound 1032]
